From patent US12618082B2, “Engineered muscle targeting compositions” (priority 2020, dated 2026)
Entries after “also recorded” stand apart in the source; their conditions may differ.

Experiments:
[1] = target: T1, αV-containing integrin heterodimers (Homo sapiens, UniProt P06756); assay: Small molecule pan-αV integrin antagonist inhibition of transduction, human primary myotubes; assay type: cell-based; details: increasing concentrations of the antagonist; capsid named in the value
T1 construct: endogenous in cells; host or cells: human primary skeletal muscle myotubes differentiated from Lonza myoblasts
T1 sequence (P06756 31-889 limits assumed): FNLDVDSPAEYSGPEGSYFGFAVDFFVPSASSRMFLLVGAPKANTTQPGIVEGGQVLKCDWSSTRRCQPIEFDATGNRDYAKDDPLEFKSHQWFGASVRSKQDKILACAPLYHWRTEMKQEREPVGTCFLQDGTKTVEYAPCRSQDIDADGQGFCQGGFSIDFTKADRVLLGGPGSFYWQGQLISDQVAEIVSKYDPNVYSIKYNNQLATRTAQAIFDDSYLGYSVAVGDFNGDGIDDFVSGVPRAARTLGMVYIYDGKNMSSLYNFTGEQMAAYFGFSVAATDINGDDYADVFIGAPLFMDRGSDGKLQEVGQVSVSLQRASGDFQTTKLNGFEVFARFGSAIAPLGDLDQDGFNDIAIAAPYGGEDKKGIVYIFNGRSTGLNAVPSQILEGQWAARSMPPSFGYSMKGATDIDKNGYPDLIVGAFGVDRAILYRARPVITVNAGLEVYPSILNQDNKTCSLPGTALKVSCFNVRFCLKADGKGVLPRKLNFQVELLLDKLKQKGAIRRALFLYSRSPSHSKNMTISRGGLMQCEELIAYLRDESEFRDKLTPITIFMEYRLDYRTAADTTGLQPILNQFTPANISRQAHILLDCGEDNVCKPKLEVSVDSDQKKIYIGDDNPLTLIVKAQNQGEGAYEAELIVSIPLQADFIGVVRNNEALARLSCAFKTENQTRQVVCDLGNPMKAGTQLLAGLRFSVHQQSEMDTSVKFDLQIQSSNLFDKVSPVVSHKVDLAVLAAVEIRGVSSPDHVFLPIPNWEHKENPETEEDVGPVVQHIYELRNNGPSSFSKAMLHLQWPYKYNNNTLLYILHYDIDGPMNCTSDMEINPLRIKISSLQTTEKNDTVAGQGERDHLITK
T1 sequence (P06756 891-1048 limits assumed): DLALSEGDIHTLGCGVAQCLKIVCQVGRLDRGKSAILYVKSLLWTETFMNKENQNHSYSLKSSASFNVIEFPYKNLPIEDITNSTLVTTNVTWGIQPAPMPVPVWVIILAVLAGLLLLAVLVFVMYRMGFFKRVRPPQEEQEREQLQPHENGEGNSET
Description: (§1) Pan-alpha V integrin antagonists CWHM-12 and GLPG0187 (MedChem Express), or anti-αVβ6 antibody (ab77906, abcam) were diluted in DMEM containing 2% horse serum at the specified concentrations. Media was removed from differentiated myotubes and replaced with the diluted inhibitors, after which the myotubes were incubated on ice for 30 minutes to inhibit endocytosis. Following this incubation, AAV9-, MyoAAV-, or EMyoAAV-CK8-Nluc were added to the cells at 5E+3 vg/cell and the plates were transferred back to the tissue culture incubators. 24 hours after transduction, luciferase intensity was measured with the Nano-Glo Luciferase Assay (Promega).

[2] = target: T2, αV-containing integrin heterodimers (Mus musculus, UniProt P43406); assay: Small molecule pan-αV integrin antagonist inhibition of transduction, mouse primary myotubes; assay type: cell-based; details: increasing concentrations of the antagonist; capsid named in the value
T2 construct: endogenous in cells; host or cells: mouse primary myotubes differentiated from C57BL/6J satellite cells
T2 sequence (P43406 31-1044): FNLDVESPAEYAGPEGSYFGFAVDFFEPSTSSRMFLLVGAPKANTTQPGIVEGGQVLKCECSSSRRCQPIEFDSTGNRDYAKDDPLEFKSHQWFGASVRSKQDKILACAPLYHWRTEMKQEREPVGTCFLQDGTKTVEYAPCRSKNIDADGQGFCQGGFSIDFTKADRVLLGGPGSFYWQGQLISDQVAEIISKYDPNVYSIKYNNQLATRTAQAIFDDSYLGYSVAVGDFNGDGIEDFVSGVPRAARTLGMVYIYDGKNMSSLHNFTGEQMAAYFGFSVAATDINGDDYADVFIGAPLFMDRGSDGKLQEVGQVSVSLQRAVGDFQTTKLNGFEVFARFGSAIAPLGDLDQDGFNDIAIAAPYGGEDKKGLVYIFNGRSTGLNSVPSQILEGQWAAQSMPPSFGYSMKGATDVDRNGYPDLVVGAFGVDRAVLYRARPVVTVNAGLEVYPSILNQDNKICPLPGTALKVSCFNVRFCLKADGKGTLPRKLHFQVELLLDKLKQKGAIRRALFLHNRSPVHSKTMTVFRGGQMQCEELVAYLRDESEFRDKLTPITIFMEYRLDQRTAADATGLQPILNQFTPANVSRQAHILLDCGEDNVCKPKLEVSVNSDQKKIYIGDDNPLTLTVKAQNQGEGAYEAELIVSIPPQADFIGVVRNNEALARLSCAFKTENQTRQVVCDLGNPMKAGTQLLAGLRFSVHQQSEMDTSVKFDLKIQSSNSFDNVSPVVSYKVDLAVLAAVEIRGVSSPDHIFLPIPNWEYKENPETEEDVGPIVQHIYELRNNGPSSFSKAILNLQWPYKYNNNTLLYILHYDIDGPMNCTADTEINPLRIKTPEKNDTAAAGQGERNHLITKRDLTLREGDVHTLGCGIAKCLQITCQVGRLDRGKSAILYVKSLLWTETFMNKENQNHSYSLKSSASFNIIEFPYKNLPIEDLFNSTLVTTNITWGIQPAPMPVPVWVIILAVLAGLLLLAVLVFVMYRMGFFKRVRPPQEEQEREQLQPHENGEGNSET
Description: as §1

SMILES	effect of the pan-αV integrin antagonist on AAV transduction efficiency, human primary myotubes [1]	effect of the pan-αV integrin antagonist on AAV transduction efficiency, mouse primary myotubes [2]
CC(C)(C)c1cc(Br)cc([C@H](CC(=O)O)NC(=O)CNC(=O)c2cc(O)cc(NC3=NCC(O)CN3)c2)c1 (stereo partly shown) [CWHM-12]	impeded MyoAAV 1A transduction in a dose-dependent manner	impeded MyoAAV 1A transduction in a dose-dependent manner
COc1ccc(S(=O)(=O)N[C@@H](CNc2nc(C)nc(N3CCC(c4ccc5c(n4)NCCC5)CC3)c2C)C(=O)O)cc1 [GLPG-0187]	dose-dependent decrease in the transduction efficiency of EMyoAAV; also recorded: impeded MyoAAV 1A transduction in a dose-dependent manner; also recorded: dose-dependent decrease in the transduction efficiency of MyoAAV 2A; also recorded: dose-dependent decrease in transduction for all the 4 variants	impeded MyoAAV 1A transduction in a dose-dependent manner
